Measured values published in patent US6228842A, “Pacidamycins produced by Streptomyces coeruleorubidus” (Microcide Pharmaceuticals, Inc., priority 1998, dated 2001).

Legend:
Experiment in all cases: In vitro antibacterial MIC, broth microdilution
P. aeruginosa 799/61 = assay type: cell-based, Pseudomonas aeruginosa; settings: P. aeruginosa 799/61 (sensitive strain); Mueller Hinton broth, 20 h at 35° C.
Description: (§1) The compounds of the invention were evaluated against various bacterial strains by determining the minimum inhibitory concentration (MIC) of each compound with respect to each strain. The MIC is defined as the lowest concentration of drug which prevents the growth of the bacteria. A variety of different Gram-negative and Gram-positive bacterial species and strains can be selected for assay purposes depending on the particular desired application. The susceptibility assay is performed in Mueller Hinton broth using a microdilution technique in a final test volume of 100 μl using 96-well microtiter plates. Test compounds are prepared in Mueller-Hinton broth at a concentration equivalent to 2-fold the desired final concentration. The bacterial inoculi are prepared as follow. Bacterial strains are grown overnight at 35° C. on Tryptic Soy agar (TSA). For each strain, one isolated colony is used to inoculate a volume of 8 ml of Mueller Hinton broth and these cultures are incubated overnight (20 h) at 35° C. in a shaking incubator. Culture are then diluted 1:10 and allow to grow for an additional one hour at 35° C. in a shaking incubator. The inoculum used for the susceptibility assay is prepared by diluting the early log-phase (1 h) culture 1:2000 with fresh Mueller Hinton broth. A 50 μl volume of the inoculi, and a 50 μl solution of the test compound prepared as described above is added to each well. This procedure results in an inoculum of approximately 5×10^5 CFU/ml. After incubation for 20 h at 35° C., the absorbance of the cultures in each is read, e.g., using the ThermoMax microtiter plate reader (Molecular Devices) at 650 nm. The MIC is defined as the lowest concentration of compounds which prevents growth of the microorganism and therefore results in a final absorbance equal to that of the drug-free (e.g., test compound free) control.

P. aeruginosa ATCC 27853 = assay type: cell-based, Pseudomonas aeruginosa; settings: Mueller Hinton broth, 20 h at 35° C.
Description: as §1

P. aeruginosa UPA res. = assay type: cell-based, Pseudomonas aeruginosa; settings: Mueller Hinton broth, 20 h at 35° C.
Description: as §1

E. coli ATCC 25922 = assay type: cell-based; settings: Mueller Hinton broth, 20 h at 35° C.
Description: as §1

E. faecalis ATCC 29212 = assay type: cell-based; settings: Mueller Hinton broth, 20 h at 35° C.
Description: as §1

S. aureus ATCC 29213 = assay type: cell-based; settings: Mueller Hinton broth, 20 h at 35° C.
Description: as §1

[1] = test system: S. epidermidis ATCC 31432; assay type: cell-based; settings: Mueller Hinton broth, 20 h at 35° C.
Description: as §1

[2] = test system: X. maltophilia ATCC 13637; assay type: cell-based; settings: Mueller Hinton broth, 20 h at 35° C.
Description: as §1

Molecule	Minimal Inhibitory Concentration, MIC (P. aeruginosa 799/61) [µg/mL]	Minimal Inhibitory Concentration, MIC (P. aeruginosa ATCC 27853) [µg/mL]	Minimal Inhibitory Concentration, MIC (P. aeruginosa UPA res.) [µg/mL]	Minimal Inhibitory Concentration, MIC (E. coli ATCC 25922) [µg/mL]	Minimal Inhibitory Concentration, MIC (E. faecalis ATCC 29212) [µg/mL]	Minimal Inhibitory Concentration, MIC (S. aureus ATCC 29213) [µg/mL]	Minimal Inhibitory Concentration, MIC [1] [µg/mL]	Minimal Inhibitory Concentration, MIC [2] [µg/mL]
C[C@H](N)C(=O)N[C@@H](Cc1cccc(O)c1)C(=O)N(C)[C@@H](C)[C@H](NC(=O)[C@H](C)NC(=O)N[C@@H](Cc1c[nH]c2ccccc12)C(=O)O)C(=O)N/C=C1/C[C@@H](O)[C@H](n2ccc(=O)[nH]c2=O)O1 [Pacidamycin-1, pacidamycin-1, reference compound]	1	4	> 250	> 250	64	> 250	> 250	> 250
C[C@H](N)C(=O)N(C)[C@@H](C)[C@H](NC(=O)[C@H](C)NC(=O)N[C@@H](Cc1c[nH]c2ccccc12)C(=O)O)C(=O)N/C=C1/C[C@@H](O)[C@H](n2ccc(=O)[nH]c2=O)O1 [Pacidamycin-D, pacidamycin-D]	4	16	> 256					
pacidamycin-4N	4	64	> 256					
pacidamycin-5T	125	> 500	> 500	> 500	> 500	> 500	> 500	> 500
C[C@H](NC(=O)N[C@@H](Cc1c[nH]c2ccccc12)C(=O)O)C(=O)N[C@H](C(=O)N/C=C1/C[C@@H](O)[C@H](n2ccc(=O)[nH]c2=O)O1)[C@H](C)N(C)C(=O)[C@@H](N)Cc1cccc(O)c1 [Pacidamycin-4, pacidamycin-4, reference compound]	2	16	> 250	64	64	> 250	> 250	
pacidamycin-5N	64	> 500	> 500	> 500	> 500	> 500	> 500	> 500
